Values quoted from earlier work as cited in US20040014652A1, “Tumor activated prodrug compounds and methods of making and using the same” (priority 2000, published 2004).

Legend:
tumors = settings: mice
[1] = human, in vivo

For TNFα, the “dose required for tumor regression” value (tumors) is given as “approximately 400 μg/kg” and the half-life [1] is given as 20 min.
